Reference: US9994547B2, “Heteroarylamide inhibitors of TBK1” (Takeda Pharmaceutical Company Limited, priority 2014, dated 2018)

Target: Full length human TBK1 (Homo sapiens (Human), UniProt Q9UHD2)
Assay: Inhibition of TBK1 Enzyme (Example A)
Type: biochemical
Details: -log(IC50), IC50 molar; 3 nM TBK1, 25 μM ATP, 60 min RT
Experimental: Full length human TBK1 with an N-terminal His-tag was cloned into the pFastBacl vector and was transfected into Sf9 cells. 72 hours later the virus was harvested and amplified through two additional rounds of infections. Then 400 mL of the resulting virus stock was used to infect 10 L of Sf9 cells at a density of 2×10^6 cells/mL. Cell pellets were harvested 48 hours post infection and were lysed by freeze-thaw, homogenization and sonication in binding buffer (25 mM Tris pH7.6, 1 M NaCl, 10 mM imidazole, 0.5 mM TCEP) plus 0.1% Triton X-100 and complete protease inhibitor cocktail. The lysate was spun and the supernatant was purified with a HisTrap FF crude and a Superdex 200 pg column.
TBK1 inhibition is determined using a 384 well plate format in buffer containing 20 mM Hepes, pH 7.4, 10 mM MgCl2, 1 mM EDTA, 0.01% Brij-L23, 1 mM DTT. Each test compound is prepared in DMSO using 2.5-fold serial dilutions for 11 data points, which are added to the buffer so that each dilution contains 1% DMSO. To each well is added 2 μL of 1 μM 5FAM-DRHDSGLDSMKDE-NH2 (in buffer), 2 μL of diluted test compound (1% DMSO in buffer), and 5 μL of 3 nM TBK1 and 25 μM ATP (in buffer). The reaction mixture is incubated at RT for 60 min, and quenched by adding 20 mM Hepes, pH 7.4, 10 mM MgCl2, 1 mM EDTA, 0.01% Brij-L23, 1 mM DTT+25 mM EDTA. To quantify the fluorescent-labeled substrate and product following reaction, the test plate is loaded on a Caliper LC-3000, which measures percent of conversion by microfluidic-based separation. Corresponding IC50 values are calculated by non-linear curve fitting of the compound concentrations and percent of inhibition to the standard IC50 equation and reported as pIC50, i.e., −log(IC50), where IC50 is the molar concentration.

Chain of Full length human TBK1 (Q9UHD2 whole entry): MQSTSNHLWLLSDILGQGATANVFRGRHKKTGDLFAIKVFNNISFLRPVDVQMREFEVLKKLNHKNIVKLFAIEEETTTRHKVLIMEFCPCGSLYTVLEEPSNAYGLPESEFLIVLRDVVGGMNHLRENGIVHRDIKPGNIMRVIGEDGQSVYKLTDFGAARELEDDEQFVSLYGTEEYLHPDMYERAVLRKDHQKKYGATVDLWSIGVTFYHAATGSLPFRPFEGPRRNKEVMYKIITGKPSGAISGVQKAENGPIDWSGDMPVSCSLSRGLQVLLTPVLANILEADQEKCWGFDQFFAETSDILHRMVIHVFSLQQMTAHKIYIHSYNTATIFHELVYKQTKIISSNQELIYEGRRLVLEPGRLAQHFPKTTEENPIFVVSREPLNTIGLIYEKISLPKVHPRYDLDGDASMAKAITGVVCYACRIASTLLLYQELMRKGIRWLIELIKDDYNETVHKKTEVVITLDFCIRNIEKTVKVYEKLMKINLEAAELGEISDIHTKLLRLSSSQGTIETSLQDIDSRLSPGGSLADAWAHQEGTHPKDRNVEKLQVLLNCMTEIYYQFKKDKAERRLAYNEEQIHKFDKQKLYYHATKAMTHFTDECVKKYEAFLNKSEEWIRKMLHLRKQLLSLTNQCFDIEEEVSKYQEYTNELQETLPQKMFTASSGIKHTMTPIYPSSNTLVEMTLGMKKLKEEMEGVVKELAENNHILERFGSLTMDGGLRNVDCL

| SMILES | TBK1 Inhibition (pIC50) |
| --- | --- |
| CC(Nc1cc(-c2cnc(NC(=O)C3CC3)cn2)cnc1C#N)C(=O)N(C)CC(F)(F)F (stereo not shown) [Example 41, N-(5-(6-cyano-5-((1-(methyl(2,2,2-trifluoroethyl)amino)-1-oxopropan-2-yl)amino)pyridin-3-yl)pyrazin-2-yl)cyclopropanecarboxamide] | 7.8 |
| N#Cc1ncc(-c2cnc(NC(=O)C3CC3)cn2)cc1NCC(=O)N1CCOC1C(F)(F)F (stereo not shown) [Example 64, N-(5-(6-cyano-5-((2-oxo-2-(2-(trifluoromethyl)oxazolidin-3-yl)ethyl)amino)pyridin-3-yl)pyrazin-2-yl)cyclopropanecarboxamide] | 7.5 |
| CN(C)C(=O)C(CC(F)(F)F)Nc1cc(-c2cnc(NC(=O)C3CC3)cn2)cnc1C#N (stereo not shown) [Example 138, N-(5-(6-cyano-5-((1-(dimethylamino)-4,4,4-trifluoro-1-oxobutan-2-yl)amino)pyridin-3-yl)pyrazin-2-yl)cyclopropanecarboxamide] | 6.2 |
| C[C@H](Nc1cc(-c2cnc(NC(=O)[C@H]3C[C@@H]3C)cn2)cnc1C#N)C(=O)N(C)C [Example 106, (1S,2S)-N-(5-(6-cyano-5-(((S)-1-(dimethylamino)-1-oxopropan-2-yl)amino)pyridin-3-yl)pyrazin-2-yl)-2-methylcyclopropanecarboxamide] | 7.4 |
| CCC(Nc1cc(-c2cnc(NC(=O)C3CC3)cn2)cnc1C#N)C(=O)N(C)CCO (stereo not shown) [Example 35, N-(5-(6-cyano-5-((1-((2-hydroxyethyl)(methyl)amino)-1-oxobutan-2-yl)amino)pyridin-3-yl)pyrazin-2-yl)cyclopropanecarboxamide] | 6.9 |
| COCC[C@H](Nc1cc(-c2cnc(NC(=O)C3CC3)cn2)ccc1C#N)C(=O)N(C)C [Example 7, (S)-N-(5-(4-cyano-3-((1-(dimethylamino)-4-methoxy-1-oxobutan-2-yl)amino)phenyl)pyrazin-2-yl)cyclopropanecarboxamide] | 8.2 |
| CC[C@H](Nc1cc(-c2cnc(NC(=O)C3CC3)cn2)cnc1C#N)C(=O)NCC(F)F [Example 120, (S)-N-(5-(6-cyano-5-((1-((2,2-difluoroethyl)amino)-1-oxobutan-2-yl)amino)pyridin-3-yl)pyrazin-2-yl)cyclopropanecarboxamide] | 7.2 |
| CN(C)C(=O)C(CC(F)F)Nc1cc(-c2cnc(NC(=O)C3CC3)cn2)cnc1C#N (stereo not shown) [Example 68, N-(5-(6-cyano-5-((1-(dimethylamino)-4,4-difluoro-1-oxobutan-2-yl)amino)pyridin-3-yl)pyrazin-2-yl)cyclopropanecarboxamide] | 7.4 |
| CCC(C#N)N(C)C(=O)CNc1cc(-c2cnc(NC(=O)C3CC3)cn2)cnc1C#N (stereo not shown) [Example 92, N-(5-(6-cyano-5-((2-((1-cyanopropyl)(methyl)amino)-2-oxoethyl)amino)pyridin-3-yl)pyrazin-2-yl)cyclopropanecarboxamide] | 6.2 |
| C[C@H](Nc1cc(-c2cnc(NC(=O)C3CC3)cn2)cnc1C#N)C(=O)N1CCO[C@H]1C(F)(F)F [Example 61, N-(5-(6-cyano-5-((S)-1-oxo-1-((S)-2-(trifluoromethyl)oxazolidin-3-yl)propan-2-ylamino)pyridin-3-yl)pyrazin-2-yl)cyclopropanecarboxamide] | 6.0 |
| N#Cc1ncc(-c2cnc(NC(=O)C3CC3)cn2)cc1NCC(=O)N1CCC[C@@H]1C(F)F [Example 141, (R)-N-(5-(6-cyano-5-((2-(2-(difluoromethyl)pyrrolidin-1-yl)-2-oxoethyl)amino)pyridin-3-yl)pyrazin-2-yl)cyclopropanecarboxamide] | 8.3 |
| C[C@H](Nc1cc(-c2cnc(NC(=O)C3CC3)cn2)cnc1C#N)C(=O)N1CCO[C@@H]1C(F)(F)F [Example 60, N-(5-(6-cyano-5-((S)-1-oxo-1-((R)-2-(trifluoromethyl)oxazolidin-3-yl)propan-2-ylamino)pyridin-3-yl)pyrazin-2-yl)cyclopropanecarboxamide] | 7.4 |
| COCCN(CC(F)F)C(=O)CNc1cc(-c2cnc(NC(=O)C3CC3)cn2)cnc1C#N [Example 82, N-(5-(6-cyano-5-((2-((2,2-difluoroethyl)(2-methoxyethyl)amino)-2-oxoethyl)amino)pyridin-3-yl)pyrazin-2-yl)cyclopropanecarboxamide] | 7.8 |
| CC(Nc1cc(-c2cnc(NC(=O)C3CC3)cn2)cnc1C#N)C(=O)N(C)CCF (stereo not shown) [Example 47, N-(5-(6-cyano-5-((1-((2-fluoroethyl)(methyl)amino)-1-oxopropan-2-yl)amino)pyridin-3-yl)pyrazin-2-yl)cyclopropanecarboxamide] | 7.7 |
| CN(C)C(=O)[C@@H](CC(F)F)Nc1cc(-c2cnc(NC(=O)C3CC3)cn2)ccc1C#N [Example 33, (R)-N-(5-(4-cyano-3-((1-(dimethylamino)-4,4-difluoro-1-oxobutan-2-yl)amino)phenyl)pyrazin-2-yl)cyclopropanecarboxamide] | 5.9 |
| CN(CCF)C(=O)C(CC(F)F)Nc1cc(-c2cnc(NC(=O)C3CC3)cn2)cnc1C#N (stereo not shown) [Example 85, N-(5-(6-cyano-5-((4,4-difluoro-1-((2-fluoroethyl)(methyl)amino)-1-oxobutan-2-yl)amino)pyridin-3-yl)pyrazin-2-yl)cyclopropanecarboxamide] | 7.1 |
| CN(CCC#N)C(=O)CNc1cc(-c2cnc(NC(=O)C3CC3)cn2)cnc1C#N [Example 65, N-(5-(6-cyano-5-((2-((2-cyanoethyl)(methyl)amino)-2-oxoethyl)amino)pyridin-3-yl)pyrazin-2-yl)cyclopropanecarboxamide] | 6.9 |
| N#Cc1ncc(-c2cnc(NC(=O)C3CC3)cn2)cc1NCC(=O)N(CCO)CC(F)F [Example 72, N-(5-(6-cyano-5-((2-((2,2-difluoroethyl)(2-hydroxyethyl)amino)-2-oxoethyl)amino)pyridin-3-yl)pyrazin-2-yl)cyclopropanecarboxamide] | 7.8 |
| CC(C)C(Nc1cc(-c2cnc(NC(=O)C3CC3)cn2)ccc1C#N)C(=O)N(C)C (stereo not shown) [Example 5, N-(5-(4-cyano-3-((1-(dimethylamino)-3-methyl-1-oxobutan-2-yl)amino)phenyl)pyrazin-2-yl)cyclopropanecarboxamide] | 7.3 |
| N#Cc1ncc(-c2cnc(NC(=O)C3CC3)cn2)cc1NCC(=O)N(CCCO)CC(F)(F)F [Example 90, N-(5-(6-cyano-5-((2-((3-hydroxypropyl)(2,2,2-trifluoroethyl)amino)-2-oxoethyl)amino)pyridin-3-yl)pyrazin-2-yl)cyclopropanecarboxamide] | 5.6 |
| C[C@H](Nc1cc(-c2cnc(NC(=O)C3CC3)cn2)cnc1C#N)C(=O)N1CC[C@H](F)C1 [Example 139, N-(5-(6-cyano-5-(((S)-1-((S)-3-fluoropyrrolidin-1-yl)-1-oxopropan-2-yl)amino)pyridin-3-yl)pyrazin-2-yl)cyclopropanecarboxamide] | 7.7 |
| C[C@H](Nc1cc(-c2cnc(NC(=O)C3CC3)cn2)cnc1C#N)C(=O)N(C)CCN(C)C [Example 67, (S)-N-(5-(6-cyano-5-((1-((2-(dimethylamino)ethyl)(methyl)amino)-1-oxopropan-2-yl)amino)pyridin-3-yl)pyrazin-2-yl)cyclopropanecarboxamide] | 6.3 |
| CN(CC(F)F)C(=O)[C@H](CO)Nc1cc(-c2cnc(NC(=O)C3CC3)cn2)cnc1C#N [Example 58, (S)-N-(5-(6-cyano-5-((1-((2,2-difluoroethyl)(methyl)amino)-3-hydroxy-1-oxopropan-2-yl)amino)pyridin-3-yl)pyrazin-2-yl)cyclopropanecarboxamide] | 7.3 |
| CN(C)C(=O)C(CO)Nc1cc(-c2cnc(NC(=O)C3CC3)cn2)ccc1C#N (stereo not shown) [Example 18, N-(5-(4-cyano-3-((1-(dimethylamino)-3-hydroxy-1-oxopropan-2-yl)amino)phenyl)pyrazin-2-yl)cyclopropanecarboxamide] | 7.5 |
| CC1CC1C(=O)Nc1cnc(-c2ccc(C#N)c(NCC(=O)N(C)C)c2)cn1 (stereo not shown) [Example 4, N-(5-(4-cyano-3-((2-(dimethylamino)-2-oxoethyl)amino)phenyl)pyrazin-2-yl)-2-methylcyclopropanecarboxamide] | 7.1 |
